Measurements reported in US8362070B2, “Application of puerarin in the preparation of P2X3 mediated drugs for pain/nervous system diseases” (Nanchang University, priority 2009, dated 2013).

Key:
Assay type in all cases: in vivo, rat
[1] = system: rats that suffer from neuropathic pain (chronic constriction injury of sciatic nerve); test: Thermal hyperalgesia (thermal withdrawal latency) in rats with neuropathic pain (CCI); conditions: for thermal withdrawal latency (TWL) in comparison with group III (CCI): CCI rats, puerarin i.p. 50 mg/mL, 4 mL/kg daily, idomethine 4 mg/kg/d i.p. (seven days after ligation), p<0.01
Method: Male SD rats, 220-250 g were provided by the Department of Experimental Animals from the Medical College of Nanchang University. The rats were divided into […] at random and 12 rats were included in each group. Experimental grouping: I (sham); II (puerarin); III (chronic constriction injuries, CCI); IV (CCI+puerarin); V (control); VI (CCI+Indo). The puerarin injection was dissolved in physiological saline and the concentration was 50 mg/mL. Group I were subjected to intraperitoneal injection of physiological saline (4 mL/kg); Group II were subjected to intraperitoneal injection of puerarin injection (4 mL/kg); Skins of the […] were cut open and their sciatic nerves were exposed, then their skin was sew up without ligating nerves. Group IV were subjected to intraperitoneal injection of puerarin injection (4 mL/kg) everyday on the first day after CCI operation. Intraperitoneal injection of idomethine (4 mg/kg/d) was carried out on the rats in […] half an hour before the operation and after the operation everyday, and the injection was carried out once a day until the test was finished.
Thiopental sodium was used to anesthetize the rats (30 mg/kg, intraperitoneal injection), and the skin in the outer side of right thighs of the rats was cut open under sterile conditions, and blunt dissection was carried out to isolate the sciatic nerves, then the sciatic nerves were slightly ligated with 4-0 chromicized catgut and four ligations were carried out in total, and an interval of about 1 mm was left between two knots. […] The rats were raised in separate cages after the operation, and mechanical withdrawal threshold and thermal withdrawal latency were determined before the operation (0 d) and 1, 3, 5, 7, 9, 11, 14 days after the operations respectively (Time for the determination is set at 10[…]00-14[…]100 everyday, and the room temperature was maintained at 22±0.5° C.).
The organic glass box was placed on a glass plate of 3 mm thick and BME-410C type automatic thermalgia stimulator (Institute of Biomedical Engineering, Chinese Academy of Medical Sciences) was used to irradiate the footplates of rats. The time for the appearance of leg withdrawal after the irradiation on footplates of rats by using the thermal radiation stimulator was considered as the thermal withdrawal latency (TWL). The time for cutting off was 30 seconds in order to prevent burn on tissues.

[2] = system: rats that suffer from superficial second degree foot burn; test: Thermal hyperalgesia (thermal withdrawal latency) in rats with foot burn; conditions: for thermal withdrawal latency (TWL) in comparison to group III (burn) / thermal withdrawal latency (TWL) after 144 hours: superficial second degree foot burn + drug; for thermal withdrawal latency (TWL) in comparison to group III (burn): 24 hours after burn, p<0.01
Description: Male SD rats, 220-250 g, 60 rats were included, which were provided by the Department of Experimental Animals from the Medical College of Nanchang University, and the animals were divided into different groups at random. Group I was the group of sham burn in skin of feet; group II was the group of puerarin injection+first degree or superficial second degree burn in skin of feet; group III was the group of physiological saline+first degree or superficial second degree burn in skin of feet; group IV was the group of sham burn in skin of back; group V was the group of puerarin injection+first degree or superficial second degree burn in skin of back; group VI was the group of physiological saline+first degree or superficial second degree burn in skin of back. Puerarin injection was dissolved in physiological saline and the concentration was 50 mg/mL. vena caudalis injection of 4 mL/kg physiological saline was carried out for the rats in group III and […] 0.5 h before burn, and the injection was carried out once a day until the termination of the test; […], and the injection was carried out once a day until the termination of the test; skin of feet or back of the rats from group I and group IV (the sham burn group) were immersed in warm water of 37° C. for 8 seconds.
After the rats were anesthetized by ether, their right posterior feet were immersed in hot water of 70° C. for 5 seconds or 8 seconds, then they were raised in separate cages after burn. The mechanical withdrawal threshold and the thermal withdrawal threshold in their right posterior feet were measured respectively before burn (Oh) and 1, 24, 48, 72, 96, 120, 144 hours after burn (the room temperature was maintained at 22±0.5° C.).
The organic glass box was placed on a glass plate of 3 mm thick and BME-410C type automatic thermalgia stimulator was used to irradiate the footplates of rats. The time for the appearance of leg withdrawal after the irradiation on footplates of rats by using the thermal radiation stimulator was considered as the thermal withdrawal latency (TWL). The time for cutting off was 25 seconds in order to prevent burn on tissues.
The organic glass box was placed on a glass plate of 3 mm thick and BME-410C type automatic thermalgia stimulator (Institute of Biomedical Engineering, Chinese Academy of Medical Sciences) was used to irrdiate the footplates of rats. The time for the appearance of leg withdrawal after the irradiation on footplates of rats by using the thermal radiation stimulator was considered as the thermal withdrawal latency. The time for cutting off was 30 seconds in order to prevent burn on tissues.

[3] = system: P2X3 mRNA; test: In situ hybridization of P2X3 mRNA in dorsal root ganglion of burn rats; conditions: n=10
Method: SD rats (their body weights were 200±20 g) were randomly divided into the group I (sham back burn), the group II (Puerarin, intraperitoneal injection), the group III (superficial second degree back burn), the group IV (superficial second degree back burn+puerarin), the group V (control) and the group VI (superficial second degree back burn+Indocin). The rats in the group IV (superficial second degree back burn+puerarin) were subjected to intraperitoneal injection of Puerarin (100 mg/kg) everyday for continuous three days 30 minutes before and after burn. The rats in the group VI (superficial second degree back burn+Indocin) were subjected to intraperitoneal injection of idomethine (4 mg/kg/d) everyday for continuous three days 30 minutes before burn and after burn. Results of in situ hybridization were subjected to analysis by using Hmias-2000 high-resolution color medical image analysis system for the detection of P2X3 receptor expression in dorsal root ganglion (DRG) in burn position of rats.

[4] = system: P2X3 protein; test: P2X3 protein expression in dorsal root ganglion of burn rats (band density normalized to β-actin); conditions: n=3
Method: SD rats (their body weights were between 200±20 g) were randomly divided into the group I (sham back burn), the group II (Puerarin, intraperitoneal injection), the group III (superficial second degree back burn), the group IV (superficial second degree back burn+puerarin), the group V (control) and the group VI (superficial second degree back burn+Indocin). The rats in the group IV (superficial second degree back burn+puerarin) were subjected to intraperitoneal injection of puerarin (100 mg/kg) everyday for continuous three days 30 minutes before burn and after burn. The rats in the group VI (superficial second degree back burn+Indocin) were subjected to intraperitoneal injection of idomethine (4 mg/kg/d) everyday for continuous three days 30 minutes before burn and after burn. Results: the optical density scanned values for the interested bands that were detected on X-ray film were read by using Alpha Imager 2200 image analysis software, and the scanned values of β-actin for different groups were used to normalize the expression level of P2X3 in corresponding groups.

[5] = superficial second degree back burn + drug (puerarin 100 mg/kg i.p., idomethine 4 mg/kg/d i.p., three days), burn 1.15±0.04, control 0.99±0.02
[6] = superficial second degree back burn + drug (puerarin 100 mg/kg i.p., idomethine 4 mg/kg/d i.p., three days), burn 1.23±0.06, control 0.98±0.02

Compound | thermal withdrawal latency (TWL) in comparison with group III (CCI) [1] | thermal withdrawal latency (TWL) in comparison to group III (burn) [2] | thermal withdrawal latency (TWL) after 144 hours ([2]; p>0.05) | average optical density (P2X3 mRNA, in situ hybridization, DRG) [3, 5] | protein expression level of P2X3 (after normalization with corresponding β-actin) [4, 6] | thermal withdrawal latency, difference from group V (control) after 14 days ([1]; CCI rats + puerarin, 14 days, p>0.05) | thermal withdrawal latency, difference among sham, puerarin alone and control ([1]; puerarin alone, no CCI, p>0.05) | thermal withdrawal latency, comparison among sham, puerarin alone and control ([2]; puerarin alone i.p., no burn, p>0.05) | average optical density (P2X3 mRNA, in situ hybridization, DRG) ([3]; puerarin alone i.p., no burn) | protein expression level of P2X3 (after normalization with corresponding β-actin) ([4]; puerarin alone i.p., no burn)
COc1ccc2c(c1)c(CC(=O)O)c(C)n2C(=O)c1ccc(Cl)cc1 [Indocin, Indometacin] | increased | significantly increased | almost recovered to normal level | 1.06±0.05 | 1.14±0.03 | – | – | – | – | –
O=c1c(-c2ccc(O)cc2)coc2c([C@@H]3O[C@H](CO)[C@@H](O)[C@H](O)[C@H]3O)c(O)ccc12 [puerarin] | significantly increased | significantly increased | almost recovered to normal level | 1.01±0.03 | 0.93±0.02 | not statistically significant | not significant | no significant difference | 0.97±0.01 | 0.97±0.02
